From US20120283209A1, “ANTIBACTERIAL AMINOGLYCOSIDE ANALOGS” (Achaogen, Inc., priority 2009, published 2012)
Converted amounts (≈) assume the structure as drawn.

Experiments:
[1] = test system: AECO001 (E. coli ATCC25922); test: MIC assay, CLSI broth microdilution; format: cell-based; conditions: Escherichia coli, Mueller Hinton Broth, 35 C, 20 hours
Description: (§1) Minimum inhibitory concentrations (MIC) were determined by reference Clinical and Laboratory Standards Institute (CLSI) broth microdilution methods per M7-A7 [2006]. Quality control ranges utilizing E. coli ATCC 25922, P. aeruginosa ATCC 27853 and S. aureus ATCC 29213, and interpretive criteria for comparator agents were as published in CLSI M100-S17 [2007]. Briefly, serial two-fold dilutions of the test compounds were prepared at 2× concentration in Mueller Hinton Broth. The compound dilutions were mixed in 96-well assay plates in a 1:1 ratio with bacterial inoculum. The inoculum was prepared by suspension of a colony from an agar plate that was prepared the previous day. Bacteria were suspended in sterile saline and added to each assay plate to obtain a final concentration of 5×10^5 CFU/mL. The plates were incubated at 35 C for 20 hours in ambient air.

[2] = test system: APAE001 (P. aeruginosa ATCC27853); test: MIC assay, CLSI broth microdilution; format: cell-based; conditions: Pseudomonas aeruginosa, Mueller Hinton Broth, 35 C, 20 hours
Description: as §1

SMILES | MIC [1] | MIC [2]
NC[C@@H](O)[C@H](O)C(=O)N[C@@H]1C[C@H](N)[C@@H](O[C@H]2O[C@H](CN)[C@@H](O)[C@@H](O)[C@H]2N)[C@H](O[C@@H]2O[C@H](CO)[C@@H](O[C@H]3O[C@@H](CN)[C@@H](O)[C@H](O)[C@H]3N)[C@H]2O)[C@H]1O [1/7] | 1 to 16 µg/mL (≈ 1.37 to 21.9 µM) | ≤ 1 µg/mL
NC[C@@H]1O[C@H](O[C@H]2[C@@H](O)[C@H](O[C@@H]3[C@@H](O)[C@H](NC(=O)[C@@H](O)[C@@H](O)CN)C[C@H](N)[C@H]3O[C@H]3O[C@H](CN)[C@@H](O)[C@@H](O)[C@H]3N)O[C@@H]2CO)[C@H](N)[C@@H](O)[C@@H]1O [2/3] | 1 to 16 µg/mL (≈ 1.37 to 21.9 µM) | ≤ 1 µg/mL
NC[C@@H](F)[C@H](O)C(=O)N[C@@H]1C[C@H](N)[C@@H](O[C@H]2O[C@H](CN)[C@@H](O)[C@@H](O)[C@H]2N)[C@H](O[C@@H]2O[C@H](CO)[C@@H](O[C@H]3O[C@@H](CN)[C@@H](O)[C@H](O)[C@H]3N)[C@H]2O)[C@H]1O [3/3] | 1 to 16 µg/mL (≈ 1.36 to 21.8 µM) | ≤ 1 µg/mL
NC[C@@H]1O[C@H](O[C@H]2[C@@H](O)[C@H](O[C@@H]3[C@@H](O)[C@H](NC(=O)[C@@H](O)C(F)(F)CN)C[C@H](N)[C@H]3O[C@H]3O[C@H](CN)[C@@H](O)[C@@H](O)[C@H]3N)O[C@@H]2CO)[C@H](N)[C@@H](O)[C@@H]1O [4/3] | 1 to 16 µg/mL (≈ 1.33 to 21.3 µM) | ≤ 1 µg/mL
